# Columns and labels:
# [1] = tested on: Human immunodeficiency virus 1; test: Antiviral activity against HIV1 infected in human JC53-BL cells after 3 days by luciferase reporter gene assay; type: functional, organism-based; details: Human immunodeficiency virus 1, JC53BL, 72 h
# [2] = biological target: C-C chemokine receptor type 5 (Homo sapiens, UniProt P51681); test: Antagonist activity at human CCR5; type: functional
# [3] = Apparent permeability from apical to basolateral side of human Caco-2 cells after 21 days
# Chain of C-C chemokine receptor type 5 (P51681 whole entry): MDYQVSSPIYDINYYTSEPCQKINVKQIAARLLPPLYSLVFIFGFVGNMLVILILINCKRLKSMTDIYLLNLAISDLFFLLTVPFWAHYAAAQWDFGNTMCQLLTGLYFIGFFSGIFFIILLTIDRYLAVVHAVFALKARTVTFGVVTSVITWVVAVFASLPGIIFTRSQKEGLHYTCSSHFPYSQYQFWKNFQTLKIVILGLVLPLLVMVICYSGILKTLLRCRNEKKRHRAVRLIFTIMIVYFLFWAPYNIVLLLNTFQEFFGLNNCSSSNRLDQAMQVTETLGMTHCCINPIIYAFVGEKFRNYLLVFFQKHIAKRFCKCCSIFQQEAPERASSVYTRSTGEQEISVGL
SMILES,IC50 [1],IC50 [2],Papp A→B [3]
Cc1ncnc(C)c1C(=O)N1C[C@H]2CN(CCC3(c4ccccc4)CN(C(=O)C4CCC(F)(F)CC4)C3)C[C@H]2C1,21 nM,28 nM,
Cc1nc(C(F)(F)F)nc(C)c1C(=O)N1C[C@H]2CN(CCC3(c4ccccc4)CN(C(=O)C4CCC(F)(F)CC4)C3)C[C@H]2C1,4 nM,30 nM,
Cc1nc(C(F)(F)F)nc(C)c1C(=O)N1C[C@H]2CN(CCC3(c4ccccc4)CN(C(=O)C4CCOC4)C3)C[C@H]2C1 (stereo partly specified),59 nM,38 nM,
Cc1nc(C(F)(F)F)nc(C)c1C(=O)N1C[C@H]2CN(CCC3(c4ccccc4)CN(C(=O)C4CC(F)(F)C4)C3)C[C@H]2C1,23 nM,66 nM,
Cc1ncnc(C)c1C(=O)N1C[C@H]2CN(CCC3(c4ccccc4)CN(C(=O)C4CC(F)(F)C4)C3)C[C@H]2C1,39 nM,30 nM,
Cc1ncnc(C)c1C(=O)N1C[C@H]2CN(CCC3(c4ccccc4)CN(S(=O)(=O)C4CCCC4)C3)C[C@H]2C1,40 nM,27 nM,
Cc1ncnc(C)c1C(=O)N1C[C@H]2CN(CCC3(c4cccc(F)c4)CCN(C(=O)C(C)(C)CO)CC3)C[C@H]2C1,,167 nM,
Cc1ncnc(C)c1C(=O)N1C[C@H]2CN(CCC3(c4ccccc4)CN(C(=O)C4CCCC4)C3)C[C@H]2C1,60 nM,67 nM,
Cc1ncnc(C)c1C(=O)N1C[C@H]2CN(CCC3(c4cccc(F)c4)CCN(C(=O)C(C)C)CC3)C[C@H]2C1,> 400 nM,102 nM,
Cc1ncnc(C)c1C(=O)N1C[C@H]2CN(CCC3(c4ccccc4)CN(C(=O)CC4CCCC4)C3)C[C@H]2C1,53 nM,28 nM,
Cc1ncnc(C)c1C(=O)N1C[C@H]2CN(CCC3(c4ccccc4)CN(C(=O)C4CCOC4)C3)C[C@H]2C1 (stereo partly specified),204 nM,55 nM,
CC(=O)N1CCC(CCN2C[C@@H]3CN(C(=O)c4c(C)ncnc4C)C[C@@H]3C2)(c2cccc(F)c2)CC1,,> 500 nM,

# Further lines, results first:
IC50 [1],IC50 [2],Papp A→B [3],SMILES
12 nM,38 nM,,Cc1ccnc(C)c1C(=O)N1C[C@H]2CN(CCC3(c4ccccc4)CN(C(=O)C4CCC(F)(F)CC4)C3)C[C@H]2C1
2 nM,17 nM,0.53 ×10⁻⁶ cm/s,Cc1cc(C#N)nc(C)c1C(=O)N1C[C@H]2CN(CCC3(c4ccccc4)CN(C(=O)C4CCC(F)(F)CC4)C3)C[C@H]2C1
4 nM,24 nM,0.44 ×10⁻⁶ cm/s,Cc1cc(C#N)nc(C)c1C(=O)N1C[C@H]2CN(CCC3(c4ccccc4)CN(C(=O)C4CC(F)(F)C4)C3)C[C@H]2C1
61.2 nM,21 nM,1.72 ×10⁻⁶ cm/s,Cc1cc(C(F)(F)F)nc(C)c1C(=O)N1C[C@H]2CN(CCC3(c4ccccc4)CN(C(=O)C4CCC(F)(F)CC4)C3)C[C@H]2C1
4 nM,22 nM,1.59 ×10⁻⁶ cm/s,Cc1cc(C(F)(F)F)nc(C)c1C(=O)N1C[C@H]2CN(CCC3(c4ccccc4)CN(C(=O)C4CC(F)(F)C4)C3)C[C@H]2C1
,242 nM,,Cc1ncnc(C)c1C(=O)N1C[C@H]2CN(CCC3(c4ccccc4)CCN(C(=O)C(C)(C)C)C3)C[C@H]2C1 (stereo partly specified)
447 nM,,,Cc1ncnc(C)c1C(=O)N1C[C@H]2CN(CCC3(c4cccc(F)c4)CCN(C(=O)CC(C)(C)C)CC3)C[C@H]2C1
18 nM,15 nM,2.73 ×10⁻⁶ cm/s,Cc1cc(C#N)nc(C)c1C(=O)N1C[C@H]2CN(CCC3(c4cccc(F)c4)CCN(C(=O)C(C)(C)C)CC3)C[C@H]2C1
24 nM,46 nM,2.55 ×10⁻⁶ cm/s,Cc1cc(C#N)nc(C)c1C(=O)N1C[C@H]2CN(CCC3(c4ccccc4)CCN(C(=O)C4CCCC4)C3)C[C@H]2C1 (stereo partly specified)
67 nM,59 nM,2.98 ×10⁻⁶ cm/s,Cc1ncnc(C)c1C(=O)N1C[C@H]2CN(CCC3(c4cccc(F)c4)CCN(C(=O)C(C)(C)C)CC3)C[C@H]2C1
,69 nM,,Cc1cc(C#N)nc(C)c1C(=O)N1C[C@H]2CN(CCC3(c4ccccc4)CCN(C(=O)C(C)(C)C)C3)C[C@H]2C1 (stereo partly specified)
351 nM,116 nM,,Cc1ncnc(C)c1C(=O)N1C[C@H]2CN(CCC3(c4ccccc4)CCN(C(=O)C4CCCC4)C3)C[C@H]2C1 (stereo partly specified)
55 nM,60 nM,,Cc1ccnc(C)c1C(=O)N1C[C@H]2CN(CCC3(c4ccccc4)CN(C(=O)C4CC(F)(F)C4)C3)C[C@H]2C1
130 nM,56 nM,,Cc1ncnc(C)c1C(=O)N1C[C@H]2CN(CCC3(c4ccccc4)CN(C(=O)C(C)(C)CO)C3)C[C@H]2C1
77 nM,27 nM,,Cc1ncnc(C)c1C(=O)N1C[C@H]2CN(CCC3(c4ccccc4)CN(C(=O)C(C)(C)C)C3)C[C@H]2C1

# From ChEMBL document CHEMBL1153211, “Evaluation of secondary amide replacements in a series of CCR5 antagonists as a means to increase intrinsic membrane permeability. Part 1: Optimization of gem-disubstituted azacycles” (Bioorg Med Chem Lett, 2010)
